Results as given in article PMC6709224, “PIM-Related Kinases Selectively Regulate Olfactory Sensations in Caenorhabditis elegans” (eNeuro, 2019).

Tests used:
Format in all cases: biochemical
PRK-2 [1] = molecular target: T1, PRK-2 (Caenorhabditis elegans, UniProt Q20443); assay: radioactive in vitro kinase assay (autophosphorylation and NFATC1 […]-418 phosphorylation); conditions: 10 µM inhibitor, 10-20 min pre-incubation, gamma-32P-ATP, 0.1% DMSO control
T1 construct: full-length, GST fusion in pGEX-6P-2, expressed in bacteria
T1 sequence (Q20443 1-441): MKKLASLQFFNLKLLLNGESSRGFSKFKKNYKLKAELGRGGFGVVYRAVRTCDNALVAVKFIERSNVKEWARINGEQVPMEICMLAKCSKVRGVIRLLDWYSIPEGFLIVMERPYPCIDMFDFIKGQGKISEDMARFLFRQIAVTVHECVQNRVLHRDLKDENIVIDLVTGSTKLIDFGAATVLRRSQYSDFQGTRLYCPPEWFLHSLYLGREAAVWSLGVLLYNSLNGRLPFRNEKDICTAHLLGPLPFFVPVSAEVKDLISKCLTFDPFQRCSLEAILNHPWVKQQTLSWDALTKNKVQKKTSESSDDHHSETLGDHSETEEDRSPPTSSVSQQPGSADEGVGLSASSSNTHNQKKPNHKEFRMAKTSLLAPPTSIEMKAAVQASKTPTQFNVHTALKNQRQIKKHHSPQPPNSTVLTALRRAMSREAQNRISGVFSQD

PIM-1 [2] = molecular target: T2, PIM-1 (Homo sapiens, UniProt P11309); assay: as above; conditions: 10 µM inhibitor, 10-20 min pre-incubation, gamma-32P-ATP, 0.1% DMSO control
T2 construct: gene PIM1; full-length short isoform (313 residues, recalled), GST fusion expressed in bacteria
T2 sequence (P11309 whole entry, the tested form may be a part, canonical isoform): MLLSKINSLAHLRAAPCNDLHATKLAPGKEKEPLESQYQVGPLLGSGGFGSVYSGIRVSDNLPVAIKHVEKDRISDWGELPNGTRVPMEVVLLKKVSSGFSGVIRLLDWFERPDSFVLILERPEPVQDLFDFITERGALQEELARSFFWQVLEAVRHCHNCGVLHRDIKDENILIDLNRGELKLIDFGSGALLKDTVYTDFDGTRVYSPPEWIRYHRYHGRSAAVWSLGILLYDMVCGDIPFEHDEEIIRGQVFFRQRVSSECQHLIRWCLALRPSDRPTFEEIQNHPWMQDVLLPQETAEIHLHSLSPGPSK

PRK-2 [3] = molecular target: T1, PRK-2; assay: radioactive in vitro kinase assay, autoradiography; conditions: labelled compound; autophosphorylation and GST-NFATC1 (1-418) as acceptor
PIM-1 [4] = molecular target: T2, PIM-1; assay: radioactive in vitro kinase assay, autoradiography; conditions: labelled compound; autophosphorylation and GST-NFATC1 (1-418) as acceptor

Row | SMILES | relative phosphorylation at 10 μM (PRK-2 [1]) | relative phosphorylation at 10 μM (PIM-1 [2]) | radioactive in vitro kinase assay, autoradiography (PRK-2 [3]) | radioactive in vitro kinase assay, autoradiography (PIM-1 [4])
1 | O=Cc1c[nH]c2c1ccc1c3ccccc3[nH]c12 [DHPCC-9] | DHPCC-9 was able to inhibit autophosphorylation of not only PIM-1, but also PRK-2 | DHPCC-9 was able to inhibit autophosphorylation of not only PIM-1, but also PRK-2 | – | –
2 | Nc1ncnc2c1ncn2[C@@H]1O[C@H](COP(=O)(O)OP(=O)(O)OP(=O)(O)O)[C@@H](O)[C@H]1O [γ-32P-ATP] | – | – | both PIM-1 and PRK-2 were able to autophosphorylate themselves | both PIM-1 and PRK-2 were able to autophosphorylate themselves
